Measured values from PubChem BioAssay (NCI).
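Exposure lasted 48 hours, with cells grown in 96-well plates and compounds tested at five concentrations. GI50: concentration for 50% inhibition of growth. TGI: concentration producing complete growth inhibition.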

Experiments:
Assay in all cases: inhibition of tumour cell growth, NCI panel, 48 h
M14 melanoma = test system: M14 melanoma
LOX IMVI melanoma = test system: LOX IMVI melanoma
OVCAR-5 ovarian = test system: OVCAR-5 ovarian
CAKI-1 renal = test system: CAKI-1 renal
NCI/ADR-RES ovarian = test system: NCI/ADR-RES ovarian
SNB-19 CNS = test system: SNB-19 CNS
A549 NSCLC = test system: A549 NSCLC
786-0 renal = test system: 786-0 renal
PC-3 prostate = test system: PC-3 prostate
TK-10 renal = test system: TK-10 renal
SF-539 CNS = test system: SF-539 CNS
CCRF-CEM leukemia = test system: CCRF-CEM leukemia
SF-295 CNS = test system: SF-295 CNS
SK-MEL-5 melanoma = test system: SK-MEL-5 melanoma
A498 renal = test system: A498 renal
SK-MEL-28 melanoma = test system: SK-MEL-28 melanoma
HS 578T breast = test system: HS 578T breast
SW-620 colon = test system: SW-620 colon
K-562 leukemia = test system: K-562 leukemia
IGROV1 ovarian = test system: IGROV1 ovarian
UACC-257 melanoma = test system: UACC-257 melanoma
KM12 colon = test system: KM12 colon
OVCAR-3 ovarian = test system: OVCAR-3 ovarian
MALME-3M melanoma = test system: MALME-3M melanoma
MDA-MB-435 = test system: MDA-MB-435
RXF 393 renal = test system: RXF 393 renal
RPMI-8226 leukemia = test system: RPMI-8226 leukemia
OVCAR-4 ovarian = test system: OVCAR-4 ovarian
MCF7 breast = test system: MCF7 breast

O=C(Nc1nc2ccc(F)cc2s1)c1cccnc1Nc1ccc(Cl)cc1Cl
GI50 (M14 melanoma): 3.18 µM | TGI (M14 melanoma): 14.6 µM | GI50 (LOX IMVI melanoma): 3.62 µM | TGI (LOX IMVI melanoma): 14.6 µM | GI50 (OVCAR-5 ovarian): 7.71 µM | TGI (OVCAR-5 ovarian): 28.9 µM | GI50 (CAKI-1 renal): 1.91 µM | TGI (CAKI-1 renal): 8.71 µM | GI50 (NCI/ADR-RES ovarian): 2.59 µM | TGI (NCI/ADR-RES ovarian): 10.5 µM | GI50 (SNB-19 CNS): 3.22 µM | TGI (SNB-19 CNS): 14.7 µM | GI50 (A549 NSCLC): 3.51 µM | TGI (A549 NSCLC): 16.1 µM | GI50 (786-0 renal): 3.28 µM | TGI (786-0 renal): 12.2 µM | GI50 (PC-3 prostate): 2.21 µM | TGI (PC-3 prostate): 9.45 µM | GI50 (TK-10 renal): 3.53 µM | TGI (TK-10 renal): 19.1 µM | GI50 (SF-539 CNS): 4.15 µM | TGI (SF-539 CNS): 15.3 µM | GI50 (CCRF-CEM leukemia): 1.82 µM | TGI (CCRF-CEM leukemia): 12.6 µM | GI50 (SF-295 CNS): 1.93 µM | TGI (SF-295 CNS): 8.02 µM | GI50 (SK-MEL-5 melanoma): 1.87 µM | TGI (SK-MEL-5 melanoma): 6.11 µM | GI50 (A498 renal): 2.13 µM | TGI (A498 renal): 6.84 µM | GI50 (SK-MEL-28 melanoma): 3.69 µM | TGI (SK-MEL-28 melanoma): 18.6 µM | GI50 (HS 578T breast): 2.92 µM | TGI (HS 578T breast): 19.7 µM | GI50 (SW-620 colon): 3.04 µM | TGI (SW-620 colon): 15.1 µM | GI50 (K-562 leukemia): 1.93 µM | TGI (K-562 leukemia): 9.26 µM | GI50 (IGROV1 ovarian): 3.66 µM | TGI (IGROV1 ovarian): > 23.6 µM | GI50 (UACC-257 melanoma): 0.753 µM | TGI (UACC-257 melanoma): 7.73 µM | GI50 (KM12 colon): 2.78 µM | TGI (KM12 colon): 9.54 µM | GI50 (OVCAR-3 ovarian): 2.18 µM | TGI (OVCAR-3 ovarian): 7.1 µM | GI50 (MALME-3M melanoma): 2.19 µM | TGI (MALME-3M melanoma): 12.1 µM | GI50 (MDA-MB-435): 3.04 µM | TGI (MDA-MB-435): 14.3 µM | GI50 (RXF 393 renal): 3.31 µM | TGI (RXF 393 renal): 11.7 µM | GI50 (RPMI-8226 leukemia): 1.49 µM | TGI (RPMI-8226 leukemia): 9.07 µM | GI50 (OVCAR-4 ovarian): 1.57 µM | TGI (OVCAR-4 ovarian): > 44.5 µM | GI50 (MCF7 breast): 2.73 µM | TGI (MCF7 breast): 13 µM
